# Measurements taken from US9133142B2, “Salts or co-crystals of 3-(3-dimethylamino-1-ethyl-2-methyl-propyl)-phenol” (Gruenenthal GmbH, priority 2010, dated 2015).
# Structures can show the parent of a compound that is named as a salt.
# Legend:
# [1] = Thermogravimetric analysis (TGA) of salts or cocrystals; assay type: physicochemical; conditions: for TGA no weight loss up to: nitrogen flow, heating rate of 10° C./min
# Experimental: Thermogravimetric investigations were performed with a Mettler-Toledo TGA/SDTA851.
# Unless otherwise specified, the samples were weighed in a aluminium crucible and measured in nitrogen flow. Generally TGA investigations were performed in a temperature range of 25 to about 200° C. or resp. 350° C. with a heating rate of 10° C./min.
# [2] = cited from earlier work
# [3] = target: recombinantly produced μ-opioid receptor (Homo sapiens, UniProt P35372); conditions: relative to morphine; cited from earlier work
# [4] = clinical studies; cited from earlier work
# Sequence of recombinantly produced μ-opioid receptor (P35372 whole entry): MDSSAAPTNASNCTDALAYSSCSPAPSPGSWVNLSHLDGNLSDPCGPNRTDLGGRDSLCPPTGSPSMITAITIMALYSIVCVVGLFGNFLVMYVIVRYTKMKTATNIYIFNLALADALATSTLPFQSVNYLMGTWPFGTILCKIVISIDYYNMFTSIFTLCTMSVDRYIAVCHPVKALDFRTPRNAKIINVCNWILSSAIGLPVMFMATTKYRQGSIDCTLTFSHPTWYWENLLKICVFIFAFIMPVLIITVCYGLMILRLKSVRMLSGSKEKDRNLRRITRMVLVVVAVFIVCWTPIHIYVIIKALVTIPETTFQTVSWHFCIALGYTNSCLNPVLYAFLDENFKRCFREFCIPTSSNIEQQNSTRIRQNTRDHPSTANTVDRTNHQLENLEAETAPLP
compound,measurement,setting,value
"CC[C@@H](c1cccc(O)c1)[C@@H](C)CN(C)C.CC[C@@H](c1cccc(O)c1)[C@@H](C)CN(C)C.O=C(O[C@H](C(=O)O)[C@H](OC(=O)c1ccccc1)C(=O)O)c1ccccc1 [Example A-1, Hemi Salt or Hemi Cocrystal of (2S,3S)-Di-benzoyl Tartaric Acid and Tapentadol]",TGA no weight loss up to,[1],to 140 °C
same,TGA no weight loss up to,[1]; listed as A-2,to 160 °C
same,TGA no weight loss up to,[1]; listed as A-3,to 160 °C
"CC[C@@H](c1cccc(O)c1)[C@@H](C)CN(C)C.O=C(O)CCCCCCCCC(=O)O [Example B-1, Salt or Cocrystal of Sebacid Acid and Tapentadol]",TGA no weight loss up to,[1],to 140 °C
same,TGA no weight loss up to,[1]; listed as B-2,to 105 °C
same,TGA no weight loss up to,[1]; listed as B-3,to 145 °C
"CC[C@@H](c1cccc(O)c1)[C@@H](C)CN(C)C.O=C(O)c1ccc2ccccc2c1O [Example C-1, Salt or Cocrystal of 1-hydroxy-2-naphthoic Acid and Tapentadol]",TGA no weight loss up to,[1],to 125 °C
same,TGA no weight loss up to,[1]; listed as C-2,to 130 °C
"CCC(c1cccc(O)c1)C(C)CN(C)C.O=C(O)CC(=O)O (centres unmarked) [Example E-1, Salt or Cocrystal of Malonic Acid and Tapentadol]",TGA no weight loss up to,[1],to 115 °C
"CC[C@@H](c1cccc(O)c1)[C@@H](C)CN(C)C [Example F-1, Salt or Cocrystal of Hydrobromic Acid and Tapentadol]",TGA no weight loss up to,[1],to 195 °C
"CC[C@@H](c1cccc(O)c1)[C@@H](C)CN(C)C.O=C(O)c1cccnc1 [Example G-1, Salt or Cocrystal of Nicotinic Acid and Tapentadol]",TGA weight loss,[1]; 28° C.-171° C.,−6.4%
"CC[C@@H](c1cccc(O)c1)[C@@H](C)CN(C)C.O=C(O)c1cccnc1 [Example G-2, Salt or Cocrystal of Nicotinic Acid and Tapentadol]",TGA no weight loss up to,[1],to 135 °C
same,TGA no weight loss up to,[1]; listed as G-3,to 150 °C
"CC[C@@H](c1cccc(O)c1)[C@@H](C)CN(C)C.CC[C@@H](c1cccc(O)c1)[C@@H](C)CN(C)C.O=C(O)/C=C/C(=O)O [Example I-1, Hemi Salt or Hemi Cocrystal of Fumaric Acid and Tapentadol]",TGA no weight loss up to,[1],to 131 °C
same,TGA no weight loss up to,[1]; listed as I-2,to 130 °C
same,TGA no weight loss up to,[1]; listed as I-3,to 130 °C
"CCC(c1cccc(O)c1)C(C)CN(C)C.O=C1NS(=O)(=O)c2ccccc21 (centres unmarked) [Example J-1, Salt or Cocrystal of Saccharin and Tapentadol]",TGA no weight loss up to,[1],to 105 °C
"CC[C@@H](c1cccc(O)c1)[C@@H](C)CN(C)C.O=C(O)c1cccnc1 [Example b2-1b, Salt or Cocrystal of Tapentadol and Nicotinic Acid]",weight loss (TGA),[1]; range: 27 to 171° C.,−5.9%
"CC[C@@H](c1cccc(O)c1)[C@@H](C)CN(C)C.O=C(O)c1cccnc1 [Example b2-1c, Salt or Cocrystal of Tapentadol and Nicotinic Acid]",TG weight change,[1]; 29.76-135.97° C.,−0.19%
same,weight loss (TGA),[1]; range: 25 to 148° C.,< 0.3%
CC[C@@H](c1cccc(O)c1)[C@@H](C)CN(C)C [hydrogen chloride salt of 3-(3-dimethylamino-1-ethyl-2-methyl-propyl)-phenol],solubility in water and aqueous media,[2],high solubility
"CC[C@@H](c1cccc(O)c1)[C@@H](C)CN(C)C [tapentadol, (1R,2R)-3-(3-dimethylamino-1-ethyl-2-methyl-propyl)-phenol]","affinity to the recombinantly produced μ-opioid receptor, times less than that of morphine",[3],18 times
same,pain-alleviating action relative to morphine,[4],two to three times less
Salt or Cocrystal of Embonic Acid and Tapentadol [Example D-1],TGA weight loss,[1]; 90° C.-157° C.,−7.1%
Salt or Cocrystal of Embonic Acid and Tapentadol [Example D-2],TGA no weight loss up to,[1],to 170 °C
same,TGA no weight loss up to,[1]; listed as D-3,to 160 °C
Salt or Cocrystal of Nitric Acid and Tapentadol [Example H-1],TGA no weight loss up to,[1],to 170 °C
Salt or Cocrystal of Tapentadol and Embonic Acid [b1-4-3],weight loss (TGA),[1]; range 31 to 171° C.,< 0.1%
Salt or Cocrystal of Tapentadol and Embonic Acid [b1-4-4],weight loss (TGA),[1]; range 53 to 167° C.,−5.7%
